From patent US20140323418A1, “SELECTIVE KINASE INHIBITORS” (PORTOLA PHARMACEUTICALS, INC., priority 2011, published 2014)

Target: T1, full length active recombinant SYK enzyme (Homo sapiens, UniProt P43405)
T1 construct: full length active recombinant SYK enzyme (Millipore, Calif.); purchased Millipore
Experiment: Inhibition of Syk tyrosine phosphorylation activity (LANCE TR-FRET kinase assay)
Assay type: biochemical
Conditions: 1 nM SYK, 550 nM substrate, 100 μM ATP, 1 hour room temperature

Row | Compound | IC50
1 | CC(=O)Oc1cnn(-c2cccc(Nc3nc(N[C@@H]4CCCC[C@@H]4N)ncc3C(N)=O)c2)n1 [Example 253, 2-(3-((2-(((1R,2S)-2-aminocyclohexyl)amino)-5-carbamoylpyrimidin-4-yl)amino)phenyl)-2H-1,2,3-triazol-4-yl acetate] | > 1 µM
2 | NC(=O)c1cnc(N[C@@H]2CCCC[C@@H]2N)nc1Nc1ccc(-c2ncco2)cc1 [Example 255, 2-(((1R,2S)-2-aminocyclohexyl)amino)-4-((4-(oxazol-2-yl)phenyl)amino)pyrimidine-5-carboxamide] | 0.01 to 0.1 µM
